Laboratory results: patent US11666558B2, “Methods of treating intraocular pressure with activators of Tie-2” (EyePoint Pharmaceuticals, Inc., priority 2015, dated 2023)
Where “and” joins values, the source holds several entries; their conditions need not be identical. Equal values may be shown once. Read-outs that look alike come from different tables or passages of the source.

Experiment: Ocular tissue concentrations (aqueous humor, vitreous humor, iris, retina, choroid, cornea) after topical ocular, subcutaneous and intravitreal administration
Type: in vivo, New Zealand White rabbits
Procedure: To measure the concentration of Compound 1 in plasma and ocular tissues following topical ocular, subcutaneous, and intravitreal administration, New Zealand White rabbits were administered Compound 1, and plasma and ocular samples were collected at pre-determined time points. Compound 1 formulations were prepared fresh on each day of dosing.
Ocular tissue samples from both eyes of each animal were collected and weights were recorded. Plasma and ocular tissue sample concentrations of Compound 1 were determined by LC-MS/MS.
New Zealand White rabbits weighing 2.5 to 3.5 kg were used on this study. Rabbits were housed one per cage. Animals were not fasted and only healthy animals with no ocular illness were used. Two rabbits per group were sacrificed at each of four ocular tissue sampling time points for a total of eight rabbits per group.
Animals were anesthetized for ocular (topical) and intravitreal dosing following the 12IA7 IACUC protocol. Each rabbit received a bolus dose of test formulation either via topical ocular administration 3 times daily on Days 1 and 2 (at 0, 6, and 12 hours), and once on Day 3 (at 0 hours) into both eyes; via intravitreal administration into both eyes once on Day 1 (at 0 hours); or via subcutaneous administration 2 times daily on Days 1 and 2 (at 0 and 8 hours) and once daily on Day 3 (at 0 hours). Doses were given within an approximately 1 hour window each day where applicable.
On Day 1, for intravitreal administration, or on Day 3, for topical ocular and subcutaneous administration, at the appropriate ocular tissue collection time points, animals were euthanized and both eyes were enucleated immediately. Following enucleation, each eye was rinsed with phosphate-buffered saline. Ocular tissue samples from both eyes of each animal were collected at predetermined time points and weights were recorded. All the samples were frozen immediately on dry ice, and stored at −60° C. to −80° C. pending bioanalysis.
An LC-MS/MS method was developed for the determination of Compound 1 in rabbit aqueous tissues (plasma, aqueous and vitreous humor) and solid ocular tissue samples. A pre-study standard curve was analyzed to determine the specificity, range, and lower limit of quantitation of the method. Plasma and tissue homogenate study samples were extracted and analyzed. All the samples were treated identically to the standards.
One eight-point standard curve was used in each analytical batch. To be accepted, each batch must have had at least five of eight standards with accuracy within ±20% of nominal, except at the lower limit of quantification (LLOQ), where ±25% was acceptable.
Concentration versus time data is plotted in FIGS. 3-16. All data are expressed as ng/g of the free drug. Samples that were below the limit of quantitation (0.2 ng/mL) were not used in the calculation of averages.

[1] = Group 3 subcutaneous 5 mg/kg, 0.5 hr
[2] = Group 3 subcutaneous 5 mg/kg, 1.0 hr
[3] = Group 3 subcutaneous 5 mg/kg, 2.0 hr
[4] = Group 3 subcutaneous 5 mg/kg, 4.0 hr
[5] = Group 5 intravitreal 2.5 mg per eye, 6.0 hr
[6] = Group 5 intravitreal 2.5 mg per eye, 24 hr
[7] = Group 5 intravitreal 2.5 mg per eye, 48 hr
[8] = Group 5 intravitreal 2.5 mg per eye, 72 hr

## COC(=O)N[C@@H](Cc1ccccc1)C(=O)N[C@@H](Cc1ccc(NS(=O)(=O)O)cc1)c1csc(-c2cccs2)n1 [Compound 1 free acid]
Group 3 subcutaneous 5 mg/kg/dose, suspension
  Average Peak Concentration, Vitreous Humor: 0.40 ng/g
[1]
  aqueous humor Conc., individual eyes (OD, OS): BLOQ (Below the limit of quantitation (0.2 ng/mL)) (2×) and 0.519 ng/mL and 1.90 ng/mL
  vitreous humor Conc., individual eyes (OD, OS): BLOQ (Below the limit of quantitation (0.2 ng/mL)) and 0.261 ng/mL
[2]
  aqueous humor Conc., individual eyes (OD, OS): 0.485 ng/mL and 0.684 ng/mL and 0.229 ng/mL and 0.257 ng/mL
  vitreous humor Conc., individual eyes (OD, OS): BLOQ (Below the limit of quantitation (0.2 ng/mL))
[3]
  aqueous humor Conc., individual eyes (OD, OS): BLOQ (Below the limit of quantitation (0.2 ng/mL)) and 0.594 ng/mL
  vitreous humor Conc., individual eyes (OD, OS): BLOQ (Below the limit of quantitation (0.2 ng/mL))
[4]
  aqueous humor Conc., individual eyes (OD, OS): 0.229 ng/mL and BLOQ (Below the limit of quantitation (0.2 ng/mL))
  vitreous humor Conc., individual eyes (OD, OS): BLOQ (Below the limit of quantitation (0.2 ng/mL))
[5]
  aqueous humor Conc., individual eyes (OD, OS): 34200 ng/mL and 15700 ng/mL and 23400 ng/mL and 32300 ng/mL
  vitreous humor Conc., individual eyes (OD, OS): 592000 ng/mL and 625000 ng/mL and 432000 ng/mL and 270000 ng/mL
[6]
  aqueous humor Conc., individual eyes (OD, OS): 3890 ng/mL and 6480 ng/mL and 5540 ng/mL and 1170 ng/mL
  vitreous humor Conc., individual eyes (OD, OS): 528000 ng/mL and 491000 ng/mL and 320000 ng/mL
[7]
  aqueous humor Conc., individual eyes (OD, OS): 476 ng/mL and 632 ng/mL and 1220 ng/mL and 1330 ng/mL
  vitreous humor Conc., individual eyes (OD, OS): 75900 ng/mL and 148000 ng/mL and 68300 ng/mL and 99000 ng/mL
[8]
  aqueous humor Conc., individual eyes (OD, OS): 145 ng/mL and 172 ng/mL and 94.1 ng/mL and 70.2 ng/mL
  vitreous humor Conc., individual eyes (OD, OS): 96500 ng/mL and 101000 ng/mL and 16200 ng/mL
New Zealand White, rabbit, aqueous humor, other: intravitreal, 2.5 mg per eye, Group 5 intravitreal 2.5 mg per eye, 6.0 hr, read-out: aqueous humor Average Conc.
  concentration at 6 hr: 26400 ng/g
New Zealand White, rabbit, aqueous humor, other: intravitreal, 2.5 mg per eye, Group 5 intravitreal 2.5 mg per eye, 24 hr, read-out: aqueous humor Average Conc.
  concentration at 24 hr: 4270 ng/g
New Zealand White, rabbit, aqueous humor, other: intravitreal, 2.5 mg per eye, Group 5 intravitreal 2.5 mg per eye, 48 hr, read-out: aqueous humor Average Conc.
  concentration at 48 hr: 915 ng/g
New Zealand White, rabbit, aqueous humor, other: intravitreal, 2.5 mg per eye, Group 5 intravitreal 2.5 mg per eye, 72 hr, read-out: aqueous humor Average Conc.
  concentration at 72 hr: 120 ng/g
New Zealand White, rabbit, aqueous humor, subcutaneous, 5 mg/kg, Group 3 subcutaneous 5 mg/kg, 0.5 hr, read-out: aqueous humor Average Conc.
  concentration at 0.5 h: 1.21 ng/g
New Zealand White, rabbit, aqueous humor, subcutaneous, 5 mg/kg, Group 3 subcutaneous 5 mg/kg, 1.0 hr, read-out: aqueous humor Average Conc.
  concentration at 1 h: 0.41 ng/g
New Zealand White, rabbit, aqueous humor, subcutaneous, 5 mg/kg, Group 3 subcutaneous 5 mg/kg, 2.0 hr, read-out: aqueous humor Average Conc.
  concentration at 2 hr: 0.66 ng/g
New Zealand White, rabbit, aqueous humor, subcutaneous, 5 mg/kg, Group 3 subcutaneous 5 mg/kg, 2.0 hr, read-out: aqueous humor Conc., individual eyes (OD, OS)
  concentration at 2 hr: 0.601 ng/mL
New Zealand White, rabbit, aqueous humor, subcutaneous, 5 mg/kg, Group 3 subcutaneous 5 mg/kg, 4.0 hr, read-out: aqueous humor Average Conc.
  concentration at 4 hr: 0.51 ng/g
New Zealand White, rabbit, aqueous humor, subcutaneous, 5 mg/kg, Group 3 subcutaneous 5 mg/kg, 4.0 hr, read-out: aqueous humor Conc., individual eyes (OD, OS)
  concentration at 4 hr: 0.209 ng/mL
New Zealand White, rabbit, vitreous humor, other: intravitreal, 2.5 mg per eye, Group 5 intravitreal 2.5 mg per eye, 6.0 hr, read-out: vitreous humor Average Conc.
  concentration at 6 h: 480000 ng/g
New Zealand White, rabbit, vitreous humor, other: intravitreal, 2.5 mg per eye, Group 5 intravitreal 2.5 mg per eye, 24 hr, read-out: vitreous humor Average Conc.
  concentration at 24 h: 409000 ng/g
New Zealand White, rabbit, vitreous humor, other: intravitreal, 2.5 mg per eye, Group 5 intravitreal 2.5 mg per eye, 24 hr, read-out: vitreous humor Conc., individual eyes (OD, OS)
  concentration at 24 h: 296000 ng/mL
New Zealand White, rabbit, vitreous humor, other: intravitreal, 2.5 mg per eye, Group 5 intravitreal 2.5 mg per eye, 48 hr, read-out: vitreous humor Average Conc.
  concentration at 48 h: 97800 ng/g
New Zealand White, rabbit, vitreous humor, other: intravitreal, 2.5 mg per eye, Group 5 intravitreal 2.5 mg per eye, 72 hr, read-out: vitreous humor Average Conc.
  concentration at 72 h: 65400 ng/g
New Zealand White, rabbit, vitreous humor, subcutaneous, 5 mg/kg, Group 3 subcutaneous 5 mg/kg, 0.5 hr, read-out: vitreous humor Average Conc.
  concentration at 0.5 hr: 0.4 ng/g
New Zealand White, rabbit, vitreous humor, subcutaneous, 5 mg/kg, Group 3 subcutaneous 5 mg/kg, 0.5 hr, read-out: vitreous humor Conc., individual eyes (OD, OS)
  concentration at 0.5 hr: 0.227 ng/mL
New Zealand White, rabbit, vitreous humor, subcutaneous, 5 mg/kg, Group 3 subcutaneous 5 mg/kg, 1.0 hr, read-out: vitreous humor Average Conc.
  concentration at 1 hr: 0.41 ng/g
New Zealand White, rabbit, vitreous humor, subcutaneous, 5 mg/kg, Group 3 subcutaneous 5 mg/kg, 1.0 hr, read-out: vitreous humor Conc., individual eyes (OD, OS)
  concentration at 1 hr: 0.407 ng/mL
New Zealand White, rabbit, vitreous humor, subcutaneous, 5 mg/kg, Group 3 subcutaneous 5 mg/kg, 4.0 hr, read-out: vitreous humor Average Conc.
  concentration at 4 hr: 0.41 ng/g
New Zealand White, rabbit, vitreous humor, subcutaneous, 5 mg/kg, Group 3 subcutaneous 5 mg/kg, 4.0 hr, read-out: vitreous humor Conc., individual eyes (OD, OS)
  concentration at 4 hr: 0.408 ng/mL
